# Biological target: T1, PIK3C3 (hVPS34) (Homo sapiens, UniProt Q8NEB9)
# T1 construct: purchased Thermo Fisher Scientific (Life Technologies) SelectScreen
# Assay: SelectScreen Adapta
# Type: biochemical
# Conditions: ATP Km app
# Summary of the method: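 SelectScreen broad panel; activity (Z'LYTE, Adapta) plus binding formats. ATP: Km app for CSF1R Z'LYTE; 10 for CAMK1 Adapta. Readout = % per kinase.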
# T1 sequence (Q8NEB9 whole entry): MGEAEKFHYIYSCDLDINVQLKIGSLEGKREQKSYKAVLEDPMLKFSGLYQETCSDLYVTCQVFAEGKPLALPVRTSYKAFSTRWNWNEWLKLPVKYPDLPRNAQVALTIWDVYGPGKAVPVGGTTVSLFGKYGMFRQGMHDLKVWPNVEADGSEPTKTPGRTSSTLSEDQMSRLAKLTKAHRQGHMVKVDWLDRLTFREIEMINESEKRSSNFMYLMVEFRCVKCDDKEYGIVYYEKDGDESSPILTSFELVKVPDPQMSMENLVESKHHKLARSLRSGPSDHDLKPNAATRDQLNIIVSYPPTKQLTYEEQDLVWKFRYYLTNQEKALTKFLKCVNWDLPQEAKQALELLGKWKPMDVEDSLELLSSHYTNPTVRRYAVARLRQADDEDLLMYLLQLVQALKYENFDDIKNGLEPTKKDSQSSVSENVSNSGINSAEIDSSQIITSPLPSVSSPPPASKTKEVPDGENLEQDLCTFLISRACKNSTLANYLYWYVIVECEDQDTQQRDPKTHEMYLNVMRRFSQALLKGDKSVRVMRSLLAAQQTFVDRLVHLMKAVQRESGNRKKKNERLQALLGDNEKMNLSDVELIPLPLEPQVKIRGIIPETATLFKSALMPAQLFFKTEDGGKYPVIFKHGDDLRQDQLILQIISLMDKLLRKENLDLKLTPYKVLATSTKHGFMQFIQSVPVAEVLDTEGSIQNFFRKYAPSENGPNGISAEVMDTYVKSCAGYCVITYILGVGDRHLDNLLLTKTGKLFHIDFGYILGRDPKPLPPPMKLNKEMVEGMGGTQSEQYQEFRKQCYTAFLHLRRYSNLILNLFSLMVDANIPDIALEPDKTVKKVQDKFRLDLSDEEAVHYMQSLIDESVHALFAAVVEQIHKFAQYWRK
structure (smiles),measurement,setting,value
CN(C(=O)CN1CCOCC1)c1ccc2sc3c(-c4cccc5c(=O)cc(N6CC7CCC(C6)O7)oc45)cccc3c2c1 [NU5455],% inhibition,1 µM,86%
same,inhibition at 1 µM,,85.9%

# From paper PMC6934184, “Selective DNA-PKcs inhibition extends the therapeutic index of localized radiotherapy and chemotherapy” (The Journal of Clinical Investigation, 2019)
